# Numbered stars: 1 amine (or outer) side, 2 acyl side, 3 side chain; on linkers, the order of the positions; unused ones are H or OH. Bridge positions count the residues as written; N and C are the ends. Square brackets hold non-standard residues; d marks the D form. Peptide text beside a SMILES is read from it. * marks the point of attachment. Orn(4R-OH,5R-OH) = O=C([C@H](C[C@@H](O)[C@@H](O)N[*:3])N[*:1])[*:2]; Pro(3S-OH,4S-Me) = C[C@H]1CN[C@H](C(=O)O)[C@H]1O; hTyr(3R-OH) = N[C@H](C(=O)O)[C@H](O)Cc1ccc(O)cc1; Hyp = O=C(O)[C@@H]1C[C@@H](O)CN1; X1 = CCC(C)CCCCCCCCCCC(=O)*
# What was measured:
# [1] = tested on: Trichophyton mentagrophytes; test: Minimum inhibitory concentration; format: cell-based
# Microsporum canis = test: Minimum inhibitory concentration; format: cell-based
# Candida albicans = test: Minimum inhibitory concentration; format: cell-based
# Botrytis cinerea 47 = test: Minimum inhibitory concentration; format: cell-based
# [2] = Solubility (physicochemical properties)
# From the text: Physicochemical Properties of the New Antibiotic Deoxymulundocandin
# Botrytis cinerea 212 = test: Minimum inhibitory concentration; format: cell-based
# Cladosporium species = test: Minimum inhibitory concentration; format: cell-based
# Aspergillus niger = test: Minimum inhibitory concentration; format: cell-based
# Microsporum gypseum = test: Minimum inhibitory concentration; format: cell-based
# Cercospora beticola 71 = test: Minimum inhibitory concentration; format: cell-based
# Botrytis cinerea 57 = test: Minimum inhibitory concentration; format: cell-based
# Botrytis cinerea 211 = test: Minimum inhibitory concentration; format: cell-based
# Penicillium italicum = test: Minimum inhibitory concentration; format: cell-based
# Saccharomycis cerevisiae = test: Minimum inhibitory concentration; format: cell-based
compound,measurement,setting,value
"CCC(C)CCCCCCCCCCC(=O)N[C@H]1C[C@@H](O)[C@@H](O)NC(=O)[C@@H]2[C@@H](O)[C@@H](C)CN2C(=O)[C@H](CO)NC(=O)[C@H]([C@H](O)Cc2ccc(O)cc2)NC(=O)[C@@H]2C[C@@H](O)CN2C(=O)[C@H]([C@@H](C)O)NC1=O (stereo partly drawn) [Deoxymulundocandin] (X1-[Orn(4R-OH,5R-OH)]T[Hyp][hTyr(3R-OH)]S[Pro(3S-OH,4S-Me)]; lactam 1-C)",Minimum Inhibitory Concentration,[1],< 0.18 micrograms per milliliter
same,Minimum Inhibitory Concentration,Microsporum canis,< 0.18 micrograms per milliliter
same,Minimum Inhibitory Concentration,Candida albicans,1.5 micrograms per milliliter
same,Minimum Inhibitory Concentration,Botrytis cinerea 47,6.25 micrograms per milliliter
same,Solubility,"[2]; in methanol, dimethyl formamide, dimethyl sulfoxide",Soluble
same,Solubility,"[2]; in water, acetone, acetonitrile, ethyl acetate, carbon tetrachloride, chloroform, benzene, petroleum ether",sparingly soluble
same,Minimum Inhibitory Concentration,Botrytis cinerea 212,25 micrograms per milliliter
same,Minimum Inhibitory Concentration,Cladosporium species,0.75 micrograms per milliliter
same,Minimum Inhibitory Concentration,Aspergillus niger,3.1 micrograms per milliliter
same,Minimum Inhibitory Concentration,Microsporum gypseum,0.18 micrograms per milliliter
same,Minimum Inhibitory Concentration,Cercospora beticola 71,6.25 micrograms per milliliter
same,Minimum Inhibitory Concentration,Botrytis cinerea 57,50 micrograms per milliliter
same,Minimum Inhibitory Concentration,Botrytis cinerea 211,25 micrograms per milliliter
same,Minimum Inhibitory Concentration,Penicillium italicum,25 micrograms per milliliter
same,Minimum Inhibitory Concentration,Saccharomycis cerevisiae,3.1 micrograms per milliliter
